The term EC50 denotes the concentration giving half of the maximal effect.

For one compound, Activity and EC50 results are on record in ChEMBL document CHEMBL6115048, “Uncovering α-Selectivity for Liver X Receptor Agonists for Lipotoxic Cancer Therapies” (J Med Chem, 2025).

For data set [1], the target named is T1, Peroxisome proliferator-activated receptor alpha (Homo sapiens) (UniProt Q07869).
T1 sequence (whole entry): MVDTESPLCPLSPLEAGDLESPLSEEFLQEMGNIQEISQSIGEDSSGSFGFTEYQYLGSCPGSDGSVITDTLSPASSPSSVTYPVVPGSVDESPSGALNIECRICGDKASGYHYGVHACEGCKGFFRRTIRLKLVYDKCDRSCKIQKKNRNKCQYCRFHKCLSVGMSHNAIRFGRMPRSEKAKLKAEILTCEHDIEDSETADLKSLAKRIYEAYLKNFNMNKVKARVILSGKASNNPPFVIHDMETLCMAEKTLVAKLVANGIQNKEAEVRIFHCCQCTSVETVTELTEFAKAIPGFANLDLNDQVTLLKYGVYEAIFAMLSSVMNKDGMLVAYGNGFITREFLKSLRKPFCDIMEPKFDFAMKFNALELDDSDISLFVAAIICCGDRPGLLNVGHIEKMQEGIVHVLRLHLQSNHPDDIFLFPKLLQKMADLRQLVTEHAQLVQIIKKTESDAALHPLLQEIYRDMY
As to the kind of experiment: Agonist activity at PPARalpha (unknown origin) transfected in human HepG2 cells co-transfected with renilla reniformis luciferase reporter at 10 uM incubated for 24 hrs by dual-luciferase reporter gene assay. The format is cell-based.

In data set [2] the target is T2, Peroxisome proliferator-activated receptor gamma (Homo sapiens) (UniProt P37231).
T2 sequence (whole entry): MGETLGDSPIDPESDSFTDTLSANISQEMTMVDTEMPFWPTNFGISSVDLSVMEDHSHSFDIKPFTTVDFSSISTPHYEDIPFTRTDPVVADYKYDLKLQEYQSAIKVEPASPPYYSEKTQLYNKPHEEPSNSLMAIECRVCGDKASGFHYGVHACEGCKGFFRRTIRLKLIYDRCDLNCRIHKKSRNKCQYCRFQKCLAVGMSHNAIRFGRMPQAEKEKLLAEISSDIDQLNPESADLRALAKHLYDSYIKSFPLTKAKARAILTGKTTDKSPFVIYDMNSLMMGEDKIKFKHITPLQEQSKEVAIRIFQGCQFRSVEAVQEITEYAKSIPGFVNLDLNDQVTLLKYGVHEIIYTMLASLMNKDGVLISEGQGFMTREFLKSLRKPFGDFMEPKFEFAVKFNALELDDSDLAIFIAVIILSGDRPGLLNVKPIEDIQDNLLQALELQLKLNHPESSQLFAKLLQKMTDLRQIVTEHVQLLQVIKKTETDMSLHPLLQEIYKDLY
The data set can be described thus: Agonist activity at PPARgamma (unknown origin) transfected in human HepG2 cells co-transfected with renilla reniformis luciferase reporter at 10 uM incubated for 24 hrs by dual-luciferase reporter gene assay. The format is cell-based. On the technique in general: A reporter such as luciferase makes a cellular process visible.

For data set [3], the target named is Estrogen receptor beta (Homo sapiens) (UniProt Q92731). As to the kind of experiment: Agonist activity at ERbeta (unknown origin) transfected in human HepG2 cells co-transfected with renilla reniformis luciferase reporter at 10 uM incubated for 24 hrs by dual-luciferase reporter gene assay. The format is cell-based.
The target of data set [4] is T3, Bile acid receptor (Homo sapiens) (UniProt Q96RI1).
T3 sequence (whole entry): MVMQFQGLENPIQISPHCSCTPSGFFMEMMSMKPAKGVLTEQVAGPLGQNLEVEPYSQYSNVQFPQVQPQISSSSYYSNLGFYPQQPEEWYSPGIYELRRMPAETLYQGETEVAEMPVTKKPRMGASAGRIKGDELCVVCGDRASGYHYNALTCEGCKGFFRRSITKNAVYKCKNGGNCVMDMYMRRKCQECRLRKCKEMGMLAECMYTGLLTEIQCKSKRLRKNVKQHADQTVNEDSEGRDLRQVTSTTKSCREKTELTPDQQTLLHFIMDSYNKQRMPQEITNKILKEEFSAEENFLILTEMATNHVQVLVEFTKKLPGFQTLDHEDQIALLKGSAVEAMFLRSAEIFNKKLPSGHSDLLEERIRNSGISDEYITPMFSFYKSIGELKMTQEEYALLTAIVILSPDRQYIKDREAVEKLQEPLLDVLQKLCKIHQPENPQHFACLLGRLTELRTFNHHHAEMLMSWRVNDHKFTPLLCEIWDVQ
As to the kind of experiment: Agonist activity at FXR (unknown origin) transfected in human HepG2 cells co-transfected with renilla reniformis luciferase reporter at 10 uM incubated for 24 hrs by dual-luciferase reporter gene assay. In kind it is cell-based.

Data set [5] addresses T4, Nuclear receptor subfamily 1 group I member 3 (Mus musculus, UniProt O35627).
T4 sequence (O35627 whole entry): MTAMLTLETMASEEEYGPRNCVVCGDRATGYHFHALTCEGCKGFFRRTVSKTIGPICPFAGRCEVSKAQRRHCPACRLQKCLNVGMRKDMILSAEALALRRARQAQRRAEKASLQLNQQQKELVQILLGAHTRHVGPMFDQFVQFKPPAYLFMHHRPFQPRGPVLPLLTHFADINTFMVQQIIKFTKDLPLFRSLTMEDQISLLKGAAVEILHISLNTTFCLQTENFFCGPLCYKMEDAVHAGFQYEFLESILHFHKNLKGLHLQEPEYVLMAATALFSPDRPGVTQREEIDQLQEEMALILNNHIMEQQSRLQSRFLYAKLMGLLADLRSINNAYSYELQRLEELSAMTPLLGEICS
The data set can be described thus: Agonist activity at mouse CAR transfected in human HepG2 cells co-transfected with p2B6-luciferase reporter at 10 uM incubated for 24 hrs by dual-luciferase reporter gene assay. The format is cell-based. Conditions: hepg2, 24 h.

The test system of data set [6] is Hep 3B2. As to the kind of experiment: Antiproliferative activity against human Hep3B cells assessed as reduction in cell viability measured after 5 days in presence of sorafenib by Celltiter-glo assay. The format is functional, cell-based. Conditions: 120 h.
Data set [7] relates to Hep 3B2. The data set can be described thus: Antiproliferative activity against human Hep3B cells assessed as reduction in cell viability at 0.01 to 100 uM measured after 5 days in presence of sorafenib and sodium oleate by CellTiter-Glo assay. The format is functional, cell-based. Conditions: dose 0.01-100 µM, time 5.0 day. In general terms: ATP-based viability assays read luminescence as a measure of living cells.

For data set [8], the system named is Hep 3B2. The data set can be described thus: Induction of oxidative stress in human Hep3B cells assessed as increase in SOD1 expression measured after 3 days in presence of sorafenib by Western blot analysis. The format is functional, cell-based. Conditions: time 3.0 day.

The structures appear in SMILES notation. Active and inactive are the calls of the source. No cut-off for these calls is given here.

Chain of Estrogen receptor beta (Homo sapiens) (Q92731 whole entry): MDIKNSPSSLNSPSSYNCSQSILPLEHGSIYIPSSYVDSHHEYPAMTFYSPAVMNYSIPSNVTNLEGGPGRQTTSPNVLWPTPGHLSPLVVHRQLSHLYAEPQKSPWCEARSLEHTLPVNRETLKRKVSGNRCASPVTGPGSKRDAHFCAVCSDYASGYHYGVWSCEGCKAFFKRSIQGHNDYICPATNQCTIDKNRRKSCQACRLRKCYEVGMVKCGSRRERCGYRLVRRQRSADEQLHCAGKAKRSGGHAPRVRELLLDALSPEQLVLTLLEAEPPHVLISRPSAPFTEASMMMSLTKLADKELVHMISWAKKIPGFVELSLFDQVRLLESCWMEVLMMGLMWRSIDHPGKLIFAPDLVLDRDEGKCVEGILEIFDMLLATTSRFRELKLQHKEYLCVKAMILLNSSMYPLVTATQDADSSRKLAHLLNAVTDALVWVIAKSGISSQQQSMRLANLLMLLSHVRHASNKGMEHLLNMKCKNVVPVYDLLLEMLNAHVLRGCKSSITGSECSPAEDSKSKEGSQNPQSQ

Consider `O=C1C(Nc2ccc(N3CCCCC3)cc2)=C(c2ccccc2)C(=O)N1Cc1ccccc1`, for which the outcome in data set [1], in data set [2], in data set [3], in data set [4] and in data set [7] was inactive. Besides, the Activity result in data set [5] is recorded as “Not_active”. Also, the concentration giving a half-maximal response (EC50) in data set [6] came out at 1.7 µM. The outcome in data set [8] was Active.
